#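 GI50: concentration for 50% inhibition of growth. At the TGI there is no net growth.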
# Legend:
# Experiment in all cases: growth of human tumour cells (NCI), 384-well format
# HT29 colon = system: HT29 colon
# EKVX NSCLC = system: EKVX NSCLC
# NCI-H460 NSCLC = system: NCI-H460 NSCLC
# U251 glioblastoma = system: U251 glioblastoma
# MDA-MB-231 breast = system: MDA-MB-231 breast
# K-562 leukemia = system: K-562 leukemia
# M14 melanoma = system: M14 melanoma
# RXF 393 renal = system: RXF 393 renal
# OVCAR-5 ovarian = system: OVCAR-5 ovarian
# SK-MEL-28 melanoma = system: SK-MEL-28 melanoma
# BT-549 breast = system: BT-549 breast
# A498 renal = system: A498 renal
# UACC-257 melanoma = system: UACC-257 melanoma
Structure (SMILES),GI50 (HT29 colon),TGI (HT29 colon),GI50 (EKVX NSCLC),TGI (EKVX NSCLC),GI50 (NCI-H460 NSCLC),TGI (NCI-H460 NSCLC),GI50 (U251 glioblastoma),TGI (U251 glioblastoma),GI50 (MDA-MB-231 breast),TGI (MDA-MB-231 breast),GI50 (K-562 leukemia),TGI (K-562 leukemia),GI50 (M14 melanoma),TGI (M14 melanoma),GI50 (RXF 393 renal),TGI (RXF 393 renal),GI50 (OVCAR-5 ovarian),TGI (OVCAR-5 ovarian),GI50 (SK-MEL-28 melanoma),TGI (SK-MEL-28 melanoma),other results
CC1=C(c2cccc(O)c2)[C@H](c2ccc(OCCN3CC(CF)C3)cc2)Oc2ccc(O)cc21,1.94 µM,3.58 µM,5.1 µM,17.5 µM,2.18 µM,4.88 µM,5.35 µM,17.1 µM,6.48 µM,19.2 µM,1.73 µM,3.29 µM,1.89 µM,3.88 µM,1.87 µM,5.29 µM,10.3 µM,22.1 µM,3.05 µM,11.6 µM,GI50 (BT-549 breast): 3.24 µM; TGI (BT-549 breast): 12.6 µM; GI50 (A498 renal): 2.28 µM; TGI (A498 renal): 6.48 µM; GI50 (UACC-257 melanoma): 1.64 µM; TGI (UACC-257 melanoma): 3.01 µM
Cc1cc([N+](=O)[O-])c(NS(=O)(=O)c2cccc(C(=O)O)c2)cc1-c1cccnc1,> 100 µM,> 100 µM,> 100 µM,> 100 µM,> 100 µM,> 100 µM,> 100 µM,> 100 µM,> 100 µM,> 100 µM,> 100 µM,> 100 µM,> 100 µM,> 100 µM,> 100 µM,> 100 µM,> 100 µM,> 100 µM,> 100 µM,> 100 µM,GI50 (BT-549 breast): > 100 µM; TGI (BT-549 breast): > 100 µM; GI50 (A498 renal): > 100 µM; TGI (A498 renal): > 100 µM; GI50 (UACC-257 melanoma): > 100 µM; TGI (UACC-257 melanoma): > 100 µM

# Source: PubChem BioAssay (NCI)
